Assay results published in the Kinase Knowledgebase extract (Sharma et al. 2016).

Key:
PIK3CD (Human) [1] = target: PIK3CD (Human) (UniProt O00329); assay: Cell-Based Assay; details: b cells
PIK3CD (Human) [2] = target: PIK3CD (Human) (UniProt O00329); assay: Enzyme Assay
PIK3CB (Human) = PIK3CB (Human) (UniProt P42338); assay: Enzyme Assay
PIK3CG (human) = PIK3CG (human) (UniProt P48736); assay: Enzyme Assay
PIK3CA (human) = PIK3CA (human) (UniProt P42336); assay: Enzyme Assay
Sequence of PIK3CA (human) (P42336 whole entry, looked up): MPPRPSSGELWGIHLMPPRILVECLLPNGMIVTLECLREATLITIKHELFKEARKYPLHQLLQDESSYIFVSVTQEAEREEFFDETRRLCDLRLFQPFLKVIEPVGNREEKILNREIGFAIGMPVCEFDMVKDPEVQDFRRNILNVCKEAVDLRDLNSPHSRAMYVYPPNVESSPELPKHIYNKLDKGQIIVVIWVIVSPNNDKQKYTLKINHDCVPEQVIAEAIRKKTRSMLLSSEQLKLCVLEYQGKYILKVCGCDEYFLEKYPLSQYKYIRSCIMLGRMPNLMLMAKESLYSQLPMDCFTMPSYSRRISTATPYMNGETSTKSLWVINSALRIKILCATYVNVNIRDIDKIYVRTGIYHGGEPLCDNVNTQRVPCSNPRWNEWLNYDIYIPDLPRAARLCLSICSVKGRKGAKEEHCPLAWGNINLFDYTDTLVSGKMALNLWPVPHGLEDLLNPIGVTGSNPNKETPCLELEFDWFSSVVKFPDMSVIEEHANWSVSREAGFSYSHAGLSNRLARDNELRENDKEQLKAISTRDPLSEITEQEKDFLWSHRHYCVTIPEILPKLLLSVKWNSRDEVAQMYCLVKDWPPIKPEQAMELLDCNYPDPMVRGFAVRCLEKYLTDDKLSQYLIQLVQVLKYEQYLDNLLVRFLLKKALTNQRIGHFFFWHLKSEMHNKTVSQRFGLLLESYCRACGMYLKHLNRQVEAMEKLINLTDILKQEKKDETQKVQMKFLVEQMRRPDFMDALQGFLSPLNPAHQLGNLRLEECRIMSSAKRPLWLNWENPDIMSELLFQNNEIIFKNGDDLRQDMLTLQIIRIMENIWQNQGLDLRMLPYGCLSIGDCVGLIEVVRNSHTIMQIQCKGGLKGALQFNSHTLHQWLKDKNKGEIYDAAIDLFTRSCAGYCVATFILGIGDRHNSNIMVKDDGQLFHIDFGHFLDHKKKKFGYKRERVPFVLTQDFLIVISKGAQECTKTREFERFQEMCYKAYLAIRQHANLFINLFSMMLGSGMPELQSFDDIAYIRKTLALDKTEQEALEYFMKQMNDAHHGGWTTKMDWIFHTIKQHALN

Sequence of PIK3CB (Human) (P42338 whole entry, looked up): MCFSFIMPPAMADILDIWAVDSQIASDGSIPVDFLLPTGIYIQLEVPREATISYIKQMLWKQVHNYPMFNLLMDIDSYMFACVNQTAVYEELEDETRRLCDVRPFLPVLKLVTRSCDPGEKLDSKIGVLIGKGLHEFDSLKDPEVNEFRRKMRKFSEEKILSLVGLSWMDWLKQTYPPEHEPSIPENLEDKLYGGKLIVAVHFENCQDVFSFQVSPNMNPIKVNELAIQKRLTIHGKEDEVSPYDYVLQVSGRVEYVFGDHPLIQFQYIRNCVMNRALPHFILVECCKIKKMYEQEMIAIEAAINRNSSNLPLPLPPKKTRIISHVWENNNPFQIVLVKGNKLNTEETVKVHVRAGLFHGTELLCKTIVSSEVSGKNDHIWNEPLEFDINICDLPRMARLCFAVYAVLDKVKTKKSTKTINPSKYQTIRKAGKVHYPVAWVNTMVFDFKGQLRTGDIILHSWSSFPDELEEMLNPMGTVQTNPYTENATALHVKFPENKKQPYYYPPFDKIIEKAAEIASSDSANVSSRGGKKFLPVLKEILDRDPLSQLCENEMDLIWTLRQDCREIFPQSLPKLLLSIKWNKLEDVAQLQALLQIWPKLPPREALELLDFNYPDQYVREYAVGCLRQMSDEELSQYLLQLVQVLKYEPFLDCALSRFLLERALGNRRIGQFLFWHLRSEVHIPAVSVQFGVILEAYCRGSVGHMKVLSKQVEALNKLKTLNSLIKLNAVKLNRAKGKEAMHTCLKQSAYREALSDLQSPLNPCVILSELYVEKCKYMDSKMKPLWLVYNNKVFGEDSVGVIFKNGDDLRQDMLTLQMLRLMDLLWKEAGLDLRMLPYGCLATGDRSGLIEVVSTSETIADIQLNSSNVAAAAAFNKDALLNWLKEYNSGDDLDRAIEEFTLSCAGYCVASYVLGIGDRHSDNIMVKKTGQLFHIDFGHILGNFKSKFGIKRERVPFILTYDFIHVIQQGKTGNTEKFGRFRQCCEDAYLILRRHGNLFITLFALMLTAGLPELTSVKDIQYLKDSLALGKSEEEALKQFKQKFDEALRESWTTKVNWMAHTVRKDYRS
Sequence of PIK3CD (Human) (O00329 whole entry, looked up): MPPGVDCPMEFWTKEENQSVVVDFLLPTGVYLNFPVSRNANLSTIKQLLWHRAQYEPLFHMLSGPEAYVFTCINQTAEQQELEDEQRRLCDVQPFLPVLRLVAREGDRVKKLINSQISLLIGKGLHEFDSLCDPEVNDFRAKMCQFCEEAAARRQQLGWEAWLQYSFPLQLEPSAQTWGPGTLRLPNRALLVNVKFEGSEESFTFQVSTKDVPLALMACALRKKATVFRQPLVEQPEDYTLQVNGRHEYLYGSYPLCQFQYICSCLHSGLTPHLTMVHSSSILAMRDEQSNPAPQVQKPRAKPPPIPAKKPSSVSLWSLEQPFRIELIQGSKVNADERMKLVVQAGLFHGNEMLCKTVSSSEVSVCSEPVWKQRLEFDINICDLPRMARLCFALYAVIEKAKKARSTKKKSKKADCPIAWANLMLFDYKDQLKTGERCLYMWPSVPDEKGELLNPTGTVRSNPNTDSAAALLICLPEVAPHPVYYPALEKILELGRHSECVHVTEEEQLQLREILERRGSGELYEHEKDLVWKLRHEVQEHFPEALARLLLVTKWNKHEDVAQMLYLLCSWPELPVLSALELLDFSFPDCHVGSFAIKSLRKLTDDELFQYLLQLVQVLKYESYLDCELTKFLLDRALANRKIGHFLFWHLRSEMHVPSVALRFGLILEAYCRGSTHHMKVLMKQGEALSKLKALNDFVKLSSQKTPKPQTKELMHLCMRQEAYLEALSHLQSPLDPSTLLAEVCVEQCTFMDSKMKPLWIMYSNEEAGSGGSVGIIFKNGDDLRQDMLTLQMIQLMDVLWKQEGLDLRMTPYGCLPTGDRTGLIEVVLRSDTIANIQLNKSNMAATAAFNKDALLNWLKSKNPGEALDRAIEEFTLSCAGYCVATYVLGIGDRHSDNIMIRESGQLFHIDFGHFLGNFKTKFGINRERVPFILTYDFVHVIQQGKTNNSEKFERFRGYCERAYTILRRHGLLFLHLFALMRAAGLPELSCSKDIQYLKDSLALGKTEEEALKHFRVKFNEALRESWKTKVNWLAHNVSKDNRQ
Sequence of PIK3CG (human) (P48736 whole entry, looked up): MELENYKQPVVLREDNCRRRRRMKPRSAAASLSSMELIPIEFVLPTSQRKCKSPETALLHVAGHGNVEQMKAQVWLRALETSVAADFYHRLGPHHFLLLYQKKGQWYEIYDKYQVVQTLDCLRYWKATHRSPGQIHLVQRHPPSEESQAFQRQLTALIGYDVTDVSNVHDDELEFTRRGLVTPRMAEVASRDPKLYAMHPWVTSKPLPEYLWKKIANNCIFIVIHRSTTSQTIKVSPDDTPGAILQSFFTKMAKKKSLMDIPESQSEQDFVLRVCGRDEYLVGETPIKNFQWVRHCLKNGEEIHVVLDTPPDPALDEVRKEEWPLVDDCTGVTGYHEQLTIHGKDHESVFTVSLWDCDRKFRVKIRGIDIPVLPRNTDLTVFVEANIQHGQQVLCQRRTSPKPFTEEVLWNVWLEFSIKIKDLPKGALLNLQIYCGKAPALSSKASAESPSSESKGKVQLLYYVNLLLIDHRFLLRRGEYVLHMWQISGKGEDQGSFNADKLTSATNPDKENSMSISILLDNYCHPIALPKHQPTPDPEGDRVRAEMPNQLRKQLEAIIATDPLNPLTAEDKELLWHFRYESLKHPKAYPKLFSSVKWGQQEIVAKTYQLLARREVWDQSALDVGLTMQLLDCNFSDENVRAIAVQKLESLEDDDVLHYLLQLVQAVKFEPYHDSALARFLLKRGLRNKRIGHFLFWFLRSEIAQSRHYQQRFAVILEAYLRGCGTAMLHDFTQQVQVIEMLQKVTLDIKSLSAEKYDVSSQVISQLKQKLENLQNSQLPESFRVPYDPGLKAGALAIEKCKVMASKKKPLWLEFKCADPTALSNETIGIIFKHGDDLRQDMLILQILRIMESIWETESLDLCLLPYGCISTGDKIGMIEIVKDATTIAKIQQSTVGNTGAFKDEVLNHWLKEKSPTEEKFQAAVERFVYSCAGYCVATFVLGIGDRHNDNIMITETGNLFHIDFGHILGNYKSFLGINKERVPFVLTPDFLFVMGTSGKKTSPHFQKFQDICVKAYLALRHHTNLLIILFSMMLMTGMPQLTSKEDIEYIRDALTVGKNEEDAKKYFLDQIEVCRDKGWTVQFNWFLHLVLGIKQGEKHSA

SMILES	IC50 (PIK3CD (Human) [1])	IC50 (PIK3CD (Human) [2])	IC50 (PIK3CB (Human))	IC50 (PIK3CG (human))	IC50 (PIK3CA (human))
C[C@H](Nc1ncnc2[nH]cnc12)c1cc2ccc(F)cc2nc1-c1cccc(F)c1	13 nM	6.6 nM	1300 nM	120 nM	14000 nM
C[C@H](Nc1ncnc2[nH]cnc12)c1cc2cccc(F)c2nc1-c1cc(F)ccc1F	13 nM	18 nM	1900 nM	560 nM	125000 nM
C[C@H](Nc1ncnc2[nH]cnc12)c1nc2cccc(Cl)c2nc1-c1cccc(F)c1	14 nM	10 nM	1400 nM	160 nM	8100 nM
C[C@H](Nc1ncnc2[nH]cnc12)c1cc2ccc(F)cc2nc1-c1ccccc1S(C)(=O)=O	6.8 nM	11 nM	2100 nM	340 nM	20000 nM
Cc1ncc(F)cc1-c1nc2c(Cl)cccc2cc1[C@H](C)Nc1ncnc2[nH]cnc12	17 nM	18 nM	1800 nM	230 nM	
C[C@H](Nc1ncnc2[nH]cnc12)c1nc2cccc(Cl)c2nc1-c1ccccn1	12 nM	5.2 nM	1090 nM	440 nM	46000 nM
C[C@H](Nc1ncnc2[nH]cnc12)c1cc2c(F)cc(F)cc2nc1-c1ccccn1		16 nM	1900 nM	610 nM	6900 nM
Cc1ncccc1-c1nc2c(Cl)cccc2cc1[C@H](C)Nc1ncnc2[nH]cnc12	4.3 nM	18 nM	1260 nM	120 nM	13000 nM
COc1ccccc1-c1nc2c(C)cccc2cc1CSc1ncnc2[nH]cnc12	840 nM	240 nM	49000 nM	8600 nM	53000 nM
C[C@H](Nc1ncnc2[nH]cnc12)c1cc2cccc(Cl)c2nc1-c1ccccn1	3.2 nM	66 nM	670 nM	150 nM	14000 nM
C[C@H](Nc1ncnc2[nH]cnc12)c1cc2cccc(Cl)c2nc1-c1ccccc1Cl	3.6 nM	8 nM	1500 nM	140 nM	36000 nM
Cc1ccccc1-c1nc2c(C)cccc2cc1COc1ncnc2[nH]ccc12	270 nM	38 nM	3300 nM	710 nM	> 125000 nM
C[C@H](Nc1ncnc2[nH]cnc12)c1cc2cccc(F)c2nc1-c1cc(F)cc(F)c1	11 nM	12 nM	4500 nM	360 nM	9000 nM
COc1ccccc1-c1nc2c(C)cccc2cc1COc1ncnc2[nH]cnc12	88 nM	44 nM	2900 nM	2600 nM	> 125000 nM
Cc1ccccc1-c1nc2c(C)cccc2cc1[C@H](C)Oc1ncnc2[nH]ccc12	4.3 nM	7.1 nM	1000 nM	93 nM	6500 nM
C[C@H](Nc1ncnc2[nH]cnc12)c1cc2cccc(Cl)c2nc1-c1cccc(F)c1	2.4 nM	12 nM	370 nM	38 nM	5700 nM
C[C@H](Nc1ncnc2[nH]cnc12)c1cc2cccc(Cl)c2nc1-c1cccc(S(C)(=O)=O)c1	56 nM	15 nM	1100 nM	770 nM	47000 nM

Continued, values first:

IC50 (PIK3CD (Human) [1])	IC50 (PIK3CD (Human) [2])	IC50 (PIK3CB (Human))	IC50 (PIK3CG (human))	IC50 (PIK3CA (human))	SMILES
51 nM	41 nM	2100 nM	290 nM	37000 nM	Cc1ccccc1-c1nc2c(C)cccc2cc1CNc1ncnc2[nH]cnc12
21 nM	59 nM	3600 nM	6600 nM	125000 nM	C[C@H](Nc1ncnc2[nH]cnc12)c1nc2c(Cl)cccc2nc1-c1ccccn1
	25 nM	1800 nM	140 nM	10000 nM	Cc1ccccc1-n1c(CNc2nc(N)nc3[nH]cnc23)nc2cccc(C)c2c1=O
25 nM	39 nM	3900 nM	450 nM	46000 nM	Clc1ccccc1-c1nc2c(Cl)cccc2cc1CNc1ncnc2[nH]cnc12
47 nM	17 nM	1700 nM	580 nM	42000 nM	Cc1ccccc1-c1nc2c(C)cccc2cc1COc1ncnc2[nH]cnc12
5.2 nM	10 nM	1100 nM	250 nM		C[C@H](Nc1ncnc2[nH]cnc12)c1cc2cccc(F)c2nc1-c1cccc(F)c1
	2600 nM	7600 nM	22000 nM	> 125000 nM	Cc1ccccc1-c1nc2c(C)cccc2cc1[C@@H](C)Oc1ncnc2[nH]ccc12
14 nM	29 nM	2200 nM	1700 nM	125000 nM	C[C@H](Nc1ncnc2[nH]cnc12)c1cc2cccc(F)c2nc1-c1ccccn1
	3600 nM	> 12000 nM	18000 nM	> 125000 nM	Cc1ccccc1-c1nc2c(C)cccc2cc1CCc1ncnc2[nH]cnc12
3.6 nM	3.2 nM	420 nM	67 nM	26000 nM	C[C@H](Nc1ncnc2[nH]cnc12)c1cc2cccc(Cl)c2nc1-c1ccccc1F
28 nM	82 nM	3700 nM	840 nM	52000 nM	Fc1cccc(-c2nc3c(Cl)cccc3cc2CNc2ncnc3[nH]cnc23)c1
	19000 nM				Cc1nnc2ccc(Cl)cc2c1N1CC(C)(C)c2ccc(N3CCOCC3)cc21
18 nM	24 nM	4100 nM	890 nM	22000 nM	C[C@H](Nc1ncnc2[nH]cnc12)c1nc2ccc(F)cc2nc1-c1ccccn1
47 nM	43 nM	5200 nM	1100 nM	62000 nM	C[C@H](Nc1ncnc2[nH]cnc12)c1cc2cccc(C#N)c2nc1-c1ccccn1
15 nM	16 nM	2900 nM	830 nM	81000 nM	C[C@H](Nc1ncnc2[nH]cnc12)c1cc2cccc(F)c2nc1-c1cccnc1
